Measured values: patent US8008329B2 (Dong Wha Pharmaceutical Co., Ltd., priority 2008, dated 2011)
Marks after values point to notes of the source that are not given here.

Test system: osteoclast differentiation
Experiment: Osteoclast differentiation in co-culture of mouse bone marrow cells and ST2 cells, TRAP staining (Examples 8-9)
Assay type: cell-based
Conditions: for % number of osteoclast (vs. solvent control group): day 7; for activity at 0.1 µM: Mus musculus, Osteoclast, 168 h, day 7, read-out: % number of osteoclast (vs. solvent control group)
Procedure: The differentiation of osteoclast from mouse bone marrow cells was induced by using co-culture system, and inhibitory effect of the drug on osteoclast differentiation was evaluated by treatment of single or combination formulation. Co-culture was performed using mouse bone marrow cells and ST cells of bone marrow-derived stromal cell.
Femora and tibia were aseptically ectomized from 6˜8 week-old male ddY mice to harvest bone marrow cells by a general method using a syringe. The red blood cells were removed from the bone marrow cells, followed by centrifugation. The bone marrow cells were suspended in α-MEM medium supplemented with 10% fetal bovine serum, and the numbers of the eukaryotic cells in the harvested bone marrow cells were counted and then immediately used for a co-culture system.
ST2 cells (RIKEN Cell Bank, Tsukuba, Japan) were cultured in α-MEM medium supplemented with 10% fetal bovine serum until confluent. Then, these cells were diluted to a desired cell number, and used for the experiment.
The bone marrow cells (1×10^5 cells/well) and ST2 cells (3,000 cells/well) prepared in the above were plated in a 96-well plate using α-MEM medium supplemented with 10% fetal bovine serum. At this time, differentiation factors, 1α,25-dihydroxyvitamin D3 (10^−8 M, hereinbelow, referred to as vitamin D3) and dexamethasone (10^−8 M), were co-added to the medium to induce osteoclast differentiation. The medium was replaced with fresh media containing the differentiation factors every 2 to 3 days.
After 7 days, when multinucleated osteoclasts were observed, the medium was removed from the wells, and then the cells were fixed with PBS containing 10% Formalin. Tartrate-Resistant Acid Phosphatase (hereinbelow, referred to as TRAP) was used as a marker to measure the mature osteoclast in consideration of its characteristics showing a positive reaction to a TRAP staining solution. The TRAP staining solution was prepared in such the manner that a substrate, naphtol AS-MS phosphate and a coloring agent (Fast Red Violet LB salt) were dissolved in N,N-dimethylformamide. A 0.1 N NaHCO3 buffer solution containing 50 mM tartaric acid was added thereto, and the mixture was stored at a refrigerator prior to use as a staining solution. The osteoclasts with 6-7 or more nuclei showing a TRAP-positive reaction were counted under a microscope.
Alendronic acid was dissolved in distilled water at a concentration of 0.1 mM, and benzamidine derivatives were dissolved in DMSO at a concentration of 0.1 mM. All of them were diluted 1,000 fold with the differentiation media to a final concentration of 0.1 μM, respectively. In this connection, a control group was maintained in 0.1% DMSO.
As the above described, the sample substances and cells, which were diluted to the desired concentrations, were plated in 96-well plate, and co-cultured. On days 3 and 5 of culture, the media were replaced with fresh differentiation media containing the sample substances. On day 7 of culture, TRAP staining was performed to count the mature multinucleated osteoclast that was formed by differentiation. The mature osteoclasts with 6 or more nuclei were counted under a microscope. The results were expressed as a percentage (%) of the number of mature osteoclast observed in each experimental group, when the number of mature osteoclast in the control group (solvent only) was regarded as 100%. The experiment was performed with 4 wells per experimental group (n=4), and the results were expressed as mean value±standard deviation. In addition, the experiment was repeated at least two times, and Student t-test was applied for significant difference between experimental groups.
The experiment was performed in the same manner as in Example 8 to evaluate the effect of individual or combination treatment of risedronic acid and benzamidine derivatives of Formula 1 on osteoclast differentiation, except using 0.1 μM risedronic acid instead of 0.1 μM alendronic acid. […]

[1] = Combination treatment (alendronic acid + compounds), 0.1 μM each
[2] = Combination treatment (risedronic acid + compounds), 0.1 μM each
[3] = Individual treatment (compounds), 0.1 μM

Compound | % number of osteoclast (vs. solvent control group) [1] | % number of osteoclast (vs. solvent control group) [2] | activity at 0.1 µM [3] [%] | % number of osteoclast (vs. solvent control group) [3] [%]
CNc1nc(-c2ccc(OCCCCCOc3ccc(C(=N)NO)cc3)cc2)c(CC2CCCC2)s1 [Compound 109, N-hydroxy-4-{5-[4-(5-cyclopentylmethyl-2-methylamino-1,3-thiazol-4-yl)phenoxy]pentyloxy}-benzamidine] | 49 ± 9.8^b % | 30 ± 6.5^ac % | 60 ± 9.6 | –
CCCNc1nc(-c2ccc(OCCCCCOc3ccc(C(=N)NO)cc3)cc2)c(CC2CCCC2)s1 [Compound 111, N-hydroxy-4-{5-[4-(5-cyclopentylmethyl-2-propylamino-1,3-thiazol-4-yl)phenoxy]pentyloxy}-benzamidine] | 51 ± 6.0% | 32 ± 5.2^ac % | 76 ± 12.2 | –
N=C(NO)c1ccc(OCCCCCOc2ccc(-c3nc(NC(=O)c4ccncc4)sc3CC3CCCC3)cc2)cc1 [Compound 112, N-hydroxy-4-{5-[4-(5-cyclopentylmethyl-2-(4-pyridylcarbonyl)amino-1,3-thiazol-4-yl)phenoxy]pentyloxy}-benzamidine] | 35 ± 7.6^ab % | 31 ± 8.0^ac % | 77 ± 9.8 | –
CNc1nc(-c2ccc(OCCCCCOc3ccc(C(=N)NO)cc3)cc2)c(CCCl)s1 [Compound 115, N-hydroxy-4-{5-[4-(5-(2-chloroethyl)-2-methylamino-1,3-thiazol-4-yl)phenoxy]pentyloxy}-benzamidine] | 51 ± 8.9% | 45 ± 8.3^ac % | 77 ± 12.4 | –
Cc1sc(N(C)CCO)nc1-c1ccc(OCCCCCOc2ccc(C(=N)NO)cc2)cc1 [Compound 120] | 54 ± 2.4^ab % | 55 ± 9.1^ac % | 80 ± 6.5 | –
CCN(CCO)c1nc(-c2ccc(OCCCCCOc3ccc(C(=N)NO)cc3)cc2)c(C)s1 [Compound 121, N-hydroxy-4-[5-(4-{2-[ethyl-(2-hydroxyethyl) -amino]-5-methyl-1,3-thiazol-4-yl}phenoxy)pentyloxy]-benzamidine] | 55 ± 11.1^ab % | 39 ± 5.7^ac % | 95 ± 3.9 | –
COCCN(CCOC)c1nc(-c2ccc(OCCCCCOc3ccc(C(=N)NO)cc3)cc2)c(C)s1 [Compound 122, N-hydroxy-4-[5-(4-{2-[bis-(2-methoxyethyl) -amino]-5-methyl-1,3-thiazol-4-yl}phenoxy)pentyloxy]-benzamidine] | 37 ± 8.1^ab % | 49 ± 7.3^ac % | 71 ± 4.4 | –
CCN(CCN1CCOCC1)c1nc(-c2ccc(OCCCCCOc3ccc(C(=N)NO)cc3)cc2)c(C)s1 [Compound 124, N-hydroxy-4-[5-(4-{2-[ethyl-1-(2-morpholinoethyl)-amino]-5-methyl-1,3-thiazol-4-yl}phenoxy)pentyloxy]-benzamidine] | 21 ± 4.3^ab % | 17 ± 5.2^ac % | – | 49 ± 3.0
Cc1sc(N(C)Cc2ccccc2)nc1-c1ccc(OCCCCCOc2ccc(C(=N)NO)cc2)cc1 [Compound 125, N-hydroxy-4-{5-(4-[2-(benzyl-methyl-amino)-5-methyl-1,3-thiazol-4-yl]phenoxy)pentyloxy}-benzamidine] | 43 ± 3.3^ab % | 21 ± 9.0^ac % | 66 ± 4.4 | –
CCN(Cc1ccccc1)c1nc(-c2ccc(OCCCCCOc3ccc(C(=N)NO)cc3)cc2)c(C)s1 [Compound 127, N-hydroxy-4-[5-{4-[2-(benzyl-ethyl-amino)-5-methyl-1,3-thiazol-4-yl]phenoxy}pentyloxy]-benzamidine] | 37 ± 6.8^ab % | 33 ± 7.3^ac % | 75 ± 14.3 | –
CCc1sc(N(CC)CCN2CCOCC2)nc1-c1ccc(OCCCCCOc2ccc(C(=N)NO)cc2)cc1 [Compound 132, N-hydroxy-4-[5-(4-{5-ethyl-2-[ethyl-(2-morpholinoethyl)-amino]-1,3-thiazol-4-yl}phenoxy)pentyloxy]-benzamidine] | 37 ± 8.3^ab % | 30 ± 3.4^ac % | 62 ± 7.7 | –
CCc1sc(N(C)Cc2ccccc2)nc1-c1ccc(OCCCCCOc2ccc(C(=N)NO)cc2)cc1 [Compound 133, N-hydroxy-4-[5-{4-[2-(benzyl-methyl-amino)-5-ethyl-1,3-thiazol-4-yl]phenoxy}pentyloxy]-benzamidine] | 42 ± 8.3^b % | 25 ± 5.7^ac % | 54 ± 8.3 | –
CCc1sc(N(C)Cc2cccnc2)nc1-c1ccc(OCCCCCOc2ccc(C(=N)NO)cc2)cc1 [Compound 134, N-hydroxy-4-[5-(4-{5-ethyl-2-[methyl-(pyridin-3-ylmethyl)amino]-1,3-thiazol-4-yl}phenoxy)pentyloxy]-benzamidine] | 39 ± 3.4^ab % | 24 ± 4.0^ac % | 57 ± 4.3 | –
CCc1sc(N(Cc2cccnc2)Cc2cccnc2)nc1-c1ccc(OCCCCCOc2ccc(C(=N)NO)cc2)cc1 [Compound 137, N-hydroxy-4-[5-(4-{2-[bis-(pyridin-3-ylmethyl)amino]-5-ethyl-1,3-thiazol-4-yl}phenoxy)pentyloxy]-benzamidine] | 11 ± 4.3^b % | 7 ± 2.2^ac % | 19 ± 2.9 | –
CCc1sc(N(CCO)CCO)nc1-c1ccc(OCCCCCOc2ccc(C(=N)NO)cc2)cc1 [Compound 139, N-hydroxy-4-[5-(4-{2-[bis-(2-hydroxyethyl)amino]-5-ethyl-1,3-thiazol-4-yl}phenoxy)pentyloxy]-benzamidine] | 49 ± 7.8% | 38 ± 6.9^ac % | 64 ± 4.6 | –
CC(C)c1sc(N(C)Cc2cccnc2)nc1-c1ccc(OCCCCCOc2ccc(C(=N)NO)cc2)cc1 [Compound 141, N-hydroxy-4-[5-(4-{5-isopropyl-2-[methyl-(pyridin-3-ylmethyl)amino]-1,3-thiazol-4-yl}phenoxy)pentyloxy]-benzamidine] | 65 ± 2.8% | 60 ± 7.5^ac % | 84 ± 8.8 | –
CCCCc1sc(N(C)CCN2CCOCC2)nc1-c1ccc(OCCCCCOc2ccc(C(=N)NO)cc2)cc1 [Compound 144, N-hydroxy-4-[5-(4-{5-butyl-2-[methyl-(2-morpholinoethyl)amino]-1,3-thiazol-4-yl}phenoxy)pentyloxy]-benzamidine] | 44 ± 10.5^ab % | 37 ± 4.3^ac % | 82 ± 6.7 | –
CCCCc1sc(N(CCC)CCC)nc1-c1ccc(OCCCCCOc2ccc(C(=N)NO)cc2)cc1 [Compound 146, N-hydroxy-4-{5-[4-(5-butyl-2-dipropylamino-1,3-thiazol-4-yl)phenoxy]pentyloxy}-benzamidine] | 79 ± 7.8% | 60 ± 13.6^c % | 81 ± 8.9 | –
CN(Cc1cccnc1)c1nc(-c2ccc(OCCCCCOc3ccc(C(=N)NO)cc3)cc2)c(CC2CCCC2)s1 [Compound 147, N-hydroxy-4-[5-(4-{5-cyclopentylmethyl-2-[methyl-(pyridin-3-ylmethyl)amino]-1,3-thiazol-4-yl}phenoxy)pentyloxy]-benzamidine] | 31 ± 3.2^ab % | 14 ± 3.0^ac % | 46 ± 4.1 | –
